This note sets out measurements from patent EP0007319A1, “Indan-1-carboxylic acid derivatives,process for their preparation and pharmaceutical preparations containing these compounds” (priority 1978, dated 1980).

Data set [1] concerns Adjuvans-Arthritis. The data set can be described thus: Adjuvant arthritis test (antiphlogistic activity). It counts as in vivo, Ratten des Stammes Lewis (LEW). Particulars: Rattus norvegicus; dose giving 40 % healing of right hind paw; M. butyricum adjuvant; oral, daily over 4 days from day 11; Lewis rats; read-out: Adjuvans-Arthritis Test in mg/kg Tier (ED40). An excerpt: Die antiphlogistische Wirksamkeit der eriindungsgemäßen Substanzen kann mit Hilfe des bekannten Adjuvans-Arthritis-Testes ermittelt werden, der wie folgt durchgeführt wird:
Es werden weibliche und männliche Ratten des Stammes Lewis (LEW) in der Gewichtsspanne zwischen 110 - 190 g verwendet. Die Tiere erhalten Trinkwasser und Altromin-Preßfutter ad libitum.
Für jede Dosisgruppe werden 10 Ratten eingesetzt .
Mycobacterium butyricum der Firma Difko, Detroit, wird als Reizmittel verwandt. Eine Suspension von 0,5 mg M. butyricum in 0,1 ml dünnflüssigem Paraffin. (DAB 7) wird in die rechte Hinterpfote subplantar injiziert.
Die Testsubstanzen werden vom 11. Versuchstag an täglich über 4 Tage oral gegeben. Die Substanzen werden als klare wässrige Lösung oder als Kristallsuspension unter Zusatz von Myrj 53 (85 mg.%) in isotonischer Natriumchlorid-Lösung verabreicht.
Die Ratten werden in bezug auf ihr Köpergewicht möglichst gleichmäßig in verschiedene Gruppen eingeteilt. Nach plethysmographischej Volumenmessung der rechten Hinterpfote wird in diese subplantar 0,1 ml Adjuvans injiziert. Die rechten Hinterpfoten werden vom 14. Versuchstag bis zum Versuchsende gemessen. Die Versuchsdauer beträgt 3 Wochen.
Bestimmt wird die Dosis an Testsubstanz, bei der eine 40 %ige Abheilung beobachtet wird (=ED40).

Data set [2] relates to Magen. The data set can be described thus: Ulcer test (gastric ulceration). It counts as in vivo, Wistar-Eatten (SPF). An excerpt:
Eine häufige Komplikation bei der Therapie mit nichtsteroidalen Entzündungshemmern stellt das Auftreten von Magenulcerationen dar. Diese Nebenwirkung kann im Tierversuch nachgewiesen werden, wobei als Dosis die Menge Testsubstanz verwendet wird, bei der im Adjuvans-Arthritis Test eine 40 %ige Abheilung beobachtet wird. Der Ulkus-Test wird wie folgt durchgeführt.
Es werden männliche Wistar-Eatten (SPF) verwandt. Die Tiere liege in einer Gewichtsspanne von 130 + 10 g. 16 Stunden vor Versuchsbeginn werden die Tiere vom Futter abgesetzt; sie erhalten Wasser ad libitum.
Pro Dosis werden 5 Tiere eingesetzt. Die Substanzen werden einmal oral, in Natriumelorid gelöst' oder als Kristallsuspension unter Zusatz von 85 mg% Myrj 53_appliziert.
3 Stunden nach Substanzapplikation injiziert man 1 ml einer 3 %igen Lösung des Farbstoffs Diphenylreinblau intravenös und tötet das Tier. Der Magen wird reseziert und mikroskopisch auf Anzahl von Epithclläsionen und Ulcera, die durch Farbstoffanreichcrunsen hervortreten, untersucht.

Setting [3] is: single oral dose equal to the ED40 of the adjuvant arthritis test, male Wistar rats, fasted 16 h, stomach examined 3 h after application.

As to `CC(C)Cc1ccc(C(C)C(=O)O)cc1` (stereo not drawn) [Verbindung 1], the ED40 in data set [1] was determined as 100 mg/kg. Also, the “Anzahl der Magenulzera bei gleicher Dosis” value in data set [2] (rat, in vivo, po) is reported as 6,8.

`CC(C(=O)O)c1ccc(C2CCCCC2)cc1` (stereo not drawn) [Verbindung 2, 2-(4-Cyclohexyl-phenyl)-propionsäure]: the ED40 in data set [1] was 40 mg/kg. Further, the “Anzahl der Magenulzera bei gleicher Dosis” value in data set [2] (rat, in vivo, po) was 7,6.

For `O=C(O)C1CCc2cc(C3CCCCC3)ccc21` (stereo not drawn) [Verbindung 3, 5-Cyclohexyl-indan-1-carbonsäure], the ED40 in data set [1] amounted to 50 mg/kg. For the same molecule, the “Anzahl der Magenulzera bei gleicher Dosis” value in data set [2] (rat, in vivo, po) is 8,3.

Take `O=C(O)C1CCc2cc(C3CCCCC3)c(Cl)cc21` (stereo not drawn) [Verbindung 4, 6-Chlor-5-cyclohexyl-indan-1-carbonsäure]: the ED40 in data set [1] is 4 mg/kg. Further, the “Anzahl der Magenulzera bei gleicher Dosis” value in data set [2] (rat, in vivo, po) is 7,8.

On to `CC(C(=O)O)c1ccc(CC2CC2)cc1` (stereo not drawn) [Verbindung 5, 2-(4-Cyclopropylmethyl-phenyl)-propionsäure], for which the ED40 in data set [1] was found to be 90 mg/kg. Also, in data set [2] (setting [3]), the “Anzahl der Magenulzera bei gleicher Dosis” value was 5,4.

Consider `CC(C(=O)O)c1ccc(CC2CCCC2)cc1` (stereo not drawn) [Verbindung 6, 2-(4-Cyclopentylmethyl-phenyl)-propionsäure], for which the ED40 in data set [1] was 10 mg/kg. In addition, the “Anzahl der Magenulzera bei gleicher Dosis” value in data set [2] (setting [3]) was 0,6.

In the case of `CC(C(=O)O)c1ccc(CC2CCCC2)c(Cl)c1` (stereo not drawn) [Verbindung 7, 2-(3-Chlor-4-cyclopentyl-methyl-phenyl)-propionsäure], in data set [1], the ED40 was 3 mg/kg. In data set [2] (setting [3]), the “Anzahl der Magenulzera bei gleicher Dosis” value was 0,6.

For `O=C(O)C1CCc2cc(CC3CCCC3)c(Cl)cc21` (stereo not drawn) [Verbindung 8, 6-Chlor-5-cyclopentyl-methyl-indan-1-carbonsäure], in data set [1], the ED40 was determined as 30 mg/kg. Also, the “Anzahl der Magenulzera bei gleicher Dosis” value in data set [2] (setting [3]) is 2,2.

Consider `O=C(O)C1CCc2cc(C=C3CCCC3)c(Cl)cc21` (stereo not drawn) [Verbindung 9, 6-Chlor-5-cyclopentyliden-methyl-indan-1-carbon-säure], for which the ED40 in data set [1] turned out to be 40 mg/kg. The “Anzahl der Magenulzera bei gleicher Dosis” value in data set [2] (setting [3]) is reported as 0,7.
